Tested on: yeast genes (level of expressed mRNA)
Assay: DNA chip analysis of expressed mRNA of yeast genes after 2 h culture with a toxic chemical substance
Format: cell-based, Saccharomyces cerevisiae S288C
Procedure: Yeast (Saccharomyces cerevtisiae S288C (α SUC2mal mel gap2 CUP1)) were cultured at 25° C. on YPD medium (yeast extract 1%, polypepton 2%, glucose 2%). One of toxic chemical substances was added to the cell at logarithmic growth phase, and the cell was further cultured for two hours. Cell was cultured without any chemical substance in the same condition, and was used as control. Concentrations of the chemical substances were defined to inhibit the growth of the yeast but not lead to death.
After the completion of cultivation, the culture was centrifuged to collect the cells. To the cells, sodium acetate buffer (50 mM sodium acetate, 10 mM EDTA, 1% SDS) was added, and the mixture was shaken at 65° C. for five minutes, followed by returning to room temperature, and obtaining the supernatant, which procedure was repeated two times. To the supernatant, ½ amount of a solution of phenol/chloroform was added, and the mixture was centrifuged to give a supernatant, which was added with an equal amount of chloroform, and the mixture was centrifuged to give a supernatant. To the supernatant, an equal amount of isopropanol containing 0.3 M sodium acetate was added, and the mixture was allowed to stand at room temperature for 30 minutes, after which the mixture was centrifuged to give a sediment of the whole RNAs. Seventy % ethanol was added to the sediment, and the mixture was again centrifuged to give a sediment, which was then dried and dissolved in water. mRNA was isolated from the whole RNAs as followings. In view of the fact that a poly A chain is attached to the 3′ terminus of mRNA, a polynucleotide having a poly T structure which was immobilized on the surface of latex beads was used to trap the mRNA, and then the mRNA was washed and eluted with spine column (Oligotex-dT30<Super>mRNA Purification Kit, Takara). Reverse transcription of the mRNA was conducted with a reverse transcriptase (Super Script II Reverse Transcriptase; catalogue No. 18064-014, GibcoBRL) using fluorescence-labeled nucleotides to give cDNAs that were introduced with Cy3-dUTP or Cy5-dUTP during the reverse transcription.
The labeled cDNAs were dissolved in TE buffer (10 mM Tris-HCl/1 mM EDTA, pH8.0), and the solution was dropped on the DNA chip containing the whole genes of yeast (DNA Chip Research Inc. Japan) so that the cDNAs were hybridized on the DNA chip at 65° C. for over 12 hours. The fluoresces intensity of the DNA chip was read with a scanner, and the ratio relative to the fluorescence intensity resulting from the absence of chemical substance was estimated as the following, which is shown in Tables 1 to 9: [formula]
In the Tables, “Intensity” indicated in the rightmost column is a value of the level of expressed mRNA of each gene in control cells as divided by the average level of the expressions of the whole genes.

With CdCl2 [(2)] the “The level of expressed mRNA in the presence of chemical substance/” value (yeast gene YNL074C, ratio to control without chemical substance, 2 h culture) was 1.3, the “The level of expressed mRNA in the presence of chemical substance/” value (yeast gene YNL092W, ratio to control without chemical substance, 2 h culture) was 1.4 and the “The level of expressed mRNA in the presence of chemical substance/The level of expressed mRNA in the absence of chemical substance” value (yeast gene YNL093W) was 6.4. The “The level of expressed mRNA in the presence of chemical substance/” value (yeast gene YNL115C, ratio to control without chemical substance, 2 h culture) was 1.8, the “The level of expressed mRNA in the presence of chemical substance/” value (yeast gene YNL156C, ratio to control without chemical substance, 2 h culture) was 1.2 and the “The level of expressed mRNA in the presence of chemical substance/” value (yeast gene YNL234W, ratio to control without chemical substance, 2 h culture) was 1.1. For the same substance, the “The level of expressed mRNA in the presence of chemical substance/” value (yeast gene YNL281W, ratio to control without chemical) was 1.3, the “The level of expressed mRNA in the presence of chemical substance/” value (yeast gene YNL305C, ratio to control without chemical) was 2.2 and the “The level of expressed mRNA in the presence of chemical substance/The level of expressed mRNA in the absence of chemical substance” value (yeast gene YNL333W) was 1.4. For the same substance, the “The level of expressed mRNA in the presence of chemical substance/The level of expressed mRNA in the absence of chemical substance” value (yeast gene YNR010W) was 1.2, the “The level of expressed mRNA in the presence of chemical substance/” value (yeast gene YNR068C, ratio to control without chemical) was 1.5 and the “The level of expressed mRNA in the presence of chemical substance/The level of expressed mRNA in the absence of chemical substance” value (yeast gene YNR069C) was 1.3. The “The level of expressed mRNA in the presence of chemical substance/in the absence of chemical substance” value (yeast gene YNR072W) was 1.5, the “The level of expressed mRNA in the presence of chemical substance/The level of expressed mRNA in the absence of chemical substance” value (yeast gene YOL013C) was 1.0 and the “The level of expressed mRNA in the presence of chemical substance/” value (yeast gene YOL032W, ratio to control without chemical) was 0.8. For the same substance, the “The level of expressed mRNA in the presence of chemical substance/” value (yeast gene YOL036W, ratio to control without chemical) was 0.9, the “The level of expressed mRNA in the presence of chemical substance/” value (yeast gene YOL047C, ratio to control without chemical) was 1.1 and the “The level of expressed mRNA in the presence of chemical substance/” value (yeast gene YOL071W, ratio to control without chemical) was 2.0. For the same substance, the “The level of expressed mRNA in the presence of chemical substance/” value (yeast gene YOL082W, ratio to control without chemical) was 1.6, the “The level of expressed mRNA in the presence of chemical substance/” value (yeast gene YOL083W, ratio to control without chemical) was 2.3 and the “The level of expressed mRNA in the presence of chemical substance/in the absence of chemical substance” value (yeast gene YOL096C) was 1.0. The “The level of expressed mRNA in the presence of chemical substance/” value (yeast gene YOL117W, ratio to control without chemical) was 1.1, the “The level of expressed mRNA in the presence of chemical substance/” value (yeast gene YOL131W, ratio to control without chemical) was 1.5 and the “The level of expressed mRNA in the presence of chemical substance/” value (yeast gene YOL150C, ratio to control without chemical substance, 2 h culture) was 3.7. For the same substance, the “The level of expressed mRNA in the presence of chemical substance/” value (yeast gene YOL162W, ratio to control without chemical) was 6.9, the “The level of expressed mRNA in the presence of chemical substance/The level of expressed mRNA in the absence of chemical substance” value (yeast gene YOL164W) was 4.4 and the “The level of expressed mRNA in the presence of chemical substance/” value (yeast gene YOR019W, ratio to control without chemical) was 1.2. For the same substance, the “The level of expressed mRNA in the presence of chemical substance/The level of expressed mRNA in the absence of chemical substance” value (yeast gene YOR036W) was 0.9, the “The level of expressed mRNA in the presence of chemical substance/The level of expressed mRNA in the absence of chemical substance” value (yeast gene YOR117W) was 1.3 and the “The level of expressed mRNA in the presence of chemical substance/The level of expressed mRNA in the absence of chemical substance” value (yeast gene YOR124C) was 1.1. For the same substance, the “The level of expressed mRNA in the presence of chemical substance/The level of expressed mRNA in the absence of chemical substance” value (yeast gene YOR132W) was 1.6, the “The level of expressed mRNA in the presence of chemical substance/The level of expressed mRNA in the absence of chemical substance” value (yeast gene YOR157C) was 1.3 and the “The level of expressed mRNA in the presence of chemical substance/in the absence of chemical substance” value (yeast gene YOR180C) was 1.1. For the same substance, the “The level of expressed mRNA in the presence of chemical substance/The level of expressed mRNA in the absence of chemical substance” value (yeast gene YOR181W) was 0.9, the “The level of expressed mRNA in the presence of chemical substance/The level of expressed mRNA in the absence of chemical substance” value (yeast gene YOR185C) was 1.3 and the “The level of expressed mRNA in the presence of chemical substance/” value (yeast gene YOR197W, ratio to control without chemical) was 1.0. For the same substance, the “The level of expressed mRNA in the presence of chemical substance/The level of expressed mRNA in the absence of chemical substance” value (yeast gene YOR198C) was 0.7, the “The level of expressed mRNA in the presence of chemical substance/The level of expressed mRNA in the absence of chemical substance” value (yeast gene YOR259C) was 1.1 and the “The level of expressed mRNA in the presence of chemical substance/The level of expressed mRNA in the absence of chemical substance” value (yeast gene YOR261C) was 1.4. The “The level of expressed mRNA in the presence of chemical substance/The level of expressed mRNA in the absence of chemical substance” value (yeast gene YOR288C) was 1.3, the “The level of expressed mRNA in the presence of chemical substance/The level of expressed mRNA in the absence of chemical substance” value (yeast gene YOR355W) was 0.6 and the “The level of expressed mRNA in the presence of chemical substance/in the absence of chemical substance” value (yeast gene YOR363C) was 2.0. The “The level of expressed mRNA in the presence of chemical substance/The level of expressed mRNA in the absence of chemical substance” value (yeast gene YOR383C) was 4.3, the “The level of expressed mRNA in the presence of chemical substance/” value (yeast gene YPL087W, ratio to control without chemical) was 5.1 and the “The level of expressed mRNA in the presence of chemical substance/The level of expressed mRNA in the absence of chemical substance” value (yeast gene YPL089C) was 1.0. The “The level of expressed mRNA in the presence of chemical substance/The level of expressed mRNA in the absence of chemical substance” value (yeast gene YPL109C) was 2.5, the “The level of expressed mRNA in the presence of chemical substance/The level of expressed mRNA in the absence of chemical substance” value (yeast gene YPL149W) was 1.5 and the “The level of expressed mRNA in the presence of chemical substance/The level of expressed mRNA in the absence of chemical substance” value (yeast gene YPL154C) was 3.3. For the same substance, the “The level of expressed mRNA in the presence of chemical substance/” value (yeast gene YPL196W, ratio to control without chemical) was 1.6, the “The level of expressed mRNA in the presence of chemical substance/” value (yeast gene YPL206C, ratio to control without chemical) was 2.9 and the “The level of expressed mRNA in the presence of chemical substance/” value (yeast gene YPL222W, ratio to control without chemical) was 3.5. For the same substance, the “The level of expressed mRNA in the presence of chemical substance/” value (yeast gene YPR023C, ratio to control without chemical) was 1.4, the “The level of expressed mRNA in the presence of chemical substance/The level of expressed mRNA in the absence of chemical substance” value (yeast gene YPR103W) was 1.1 and the “The level of expressed mRNA in the presence of chemical substance/The level of expressed mRNA in the absence of chemical substance” value (yeast gene YPR108W) was 1.0. For the same substance, the “The level of expressed mRNA in the presence of chemical substance/” value (yeast gene YPR151C, ratio to control without chemical) was 2.0 and the “The level of expressed mRNA in the presence of chemical substance/in the absence of chemical substance” value (yeast gene YPR184W) was 1.4.

Source: US20050112573A1, “Method of detecting toxic substance” (priority 2001, published 2005)
